Assay results as given in patent US7767707B2, “Fused pyrazolyl compounds having an aminoalkylcarbonyl group” (Yung Shin Pharm. Ind. Co., Ltd., priority 2007, dated 2010).

System: NCI H-226 cells
Experiment: Cytotoxicity MTT assay against NCI H-226 cells
Type: cell-based
Settings: NCI H-226 cells (4 × 10^4), 72 hrs treatment, mean ± S.D. of three experiments
Method: The target compound 5, 6 and related succinate (A), glutamate (B) derivatives were evaluated in a MTT assay against NCI H226 cells, and the results are shown in Table 1.
The NCI H-226 cells were maintained in RPMI-1640 medium supplemented with 10% fetal bovine serum (GIBCO/BRL), penicillin (100 unit/mL)/streptomycin (100 μg/mL) (GIBCO/BRL) and 1% L-glutamine (GIBCO/BRL) at 37° C. in a humidified atmosphere containing 5% CO2. Logarithmically growing tumor cells were used for all experiments.
The cytotoxicity was assessed using MTT assay.^1 NCI H-226 cells (4×10^4) were treated separately with compounds A, B, 5, and 6 for 72 h. After treatment, the cells were collected, washed with cold PBS, and then added 10 μL of MTT solution (5 mg/mL)(Sigma) with 50 μL of cells suspension in HBSS into 96-well plate and incubated them at 37° C. in the dark for 2 h. Treatment of living cells with MTT produces a dark blue formazan product, whereas no such staining is observed in dead cells. The formazan product was dissolved by adding 140 μL DMSO and then the absorbance was measured on an ELISA reader at a best wavelength of 570 nm.
Values are expression as the mean ±S.D. of three independent experiments. Student's t tests were used to assess the statistical significance of the differences, with “p” values of less than 0.05 being considered statistically significant.

Compound `NCC(=O)OCc1ccc(-c2nn(Cc3ccccc3)c3ccccc23)o1` [Compound 5] has an MTT % (Conc. 0.10 μM) of 85.8 ± 1.7%, an MTT % (Conc. 1.0 μM) of 18.5 ± 3.9% and an MTT % (Conc. 10.0 μM) of 0%.
